Reference: ChEMBL document CHEMBL1201862, “PubChem BioAssay data set” (2004)
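In this assay, cells in 96-well plates receive the compound at five concentrations for 48 hours. Endpoints are linearly interpolated between the surrounding concentrations. GI50 is the concentration that inhibits growth by half.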 Active and inactive are the calls of the source. Rule as the data show it: active = GI50 up to about 1.1 µM and inactive = higher.

Key:
Test in all cases: NCI tumour cell line growth inhibition, 48 h
NCI-H522 = tested on: NCI-H522
SK-MEL-5 = tested on: SK-MEL-5
COLO 205 = tested on: COLO 205
UO-31 = tested on: UO-31
HCT-15 = tested on: HCT-15
SN12C = tested on: SN12C
OVCAR-8 = tested on: OVCAR-8
MDA-MB-435 = tested on: MDA-MB-435
EKVX = tested on: EKVX
K562 = tested on: K562
HCC 2998 = tested on: HCC 2998
NCI/ADR-RES = tested on: NCI/ADR-RES
NCI-H23 = tested on: NCI-H23
HOP-62 = tested on: HOP-62
OVCAR-3 = tested on: OVCAR-3
HL-60 = tested on: HL-60
A549 = tested on: A549
RXF 393 = tested on: RXF 393
KM12 = tested on: KM12
786-0 = tested on: 786-0

Structure (SMILES)	GI50 (NCI-H522)	GI50 (SK-MEL-5)	GI50 (COLO 205)	GI50 (UO-31)	GI50 (HCT-15)	GI50 (SN12C)	GI50 (OVCAR-8)	GI50 (MDA-MB-435)	GI50 (EKVX)	GI50 (K562)	GI50 (HCC 2998)	GI50 (NCI/ADR-RES)	GI50 (NCI-H23)	GI50 (HOP-62)	GI50 (OVCAR-3)	GI50 (HL-60)	GI50 (A549)	GI50 (RXF 393)	GI50 (KM12)	GI50 (786-0)
Cn1c(=O)c2c(nc(Nc3ccc(Cl)cc3)n3c(=O)n(-c4ccccc4)c(=O)n23)n(C)c1=O	> 100000 nM (inactive)	> 100000 nM (inactive)	> 100000 nM (inactive)	> 100000 nM (inactive)	> 100000 nM	> 100000 nM (inactive)	> 100000 nM (inactive)	> 100000 nM (inactive)	> 100000 nM (inactive)	> 100000 nM (inactive)	> 100000 nM (inactive)	> 100000 nM (inactive)	> 100000 nM (inactive)	> 100000 nM (inactive)	> 100000 nM (inactive)	> 100000 nM (inactive)	> 100000 nM (inactive)	> 100000 nM (inactive)	> 100000 nM (inactive)	> 100000 nM (inactive)
CCCC(=O)NC1CCc2cc(OC)c(OC)c(OC)c2-c2ccc(OC)c(=O)cc21 (stereo not given)	0.442 nM (active)	0.356 nM (active)	0.235 nM (active)	81.3 nM (active)	6.37 nM	0.782 nM (active)	2.52 nM (active)	0.296 nM (active)	0.577 nM (active)	0.41 nM (active)	1.86 nM (active)	118 nM (active)	0.715 nM (active)	0.679 nM (active)	0.384 nM (active)	0.321 nM (active)	5.38 nM (active)	10 nM (active)	0.449 nM (active)	0.652 nM (active)
